Square brackets hold non-standard residues; d marks the D form. Peptide text beside a SMILES is read from it. * marks the point of attachment. NHPhenethyl = c1ccc(CCN*)cc1; PhAc = O=C(Cc1ccccc1)*

The target in series [1] is T1, human BRS-3 (subtype 3 of the human bombesin receptor) (Homo sapiens, UniProt P32247).
T1 construct: expressed in transfected cells; host or cells: CHO-K1 cells, stably transfected with RD-HGA16 (human Gα16) and pcDNA3.1(-)-BRS-3; single-cell clone selected
T1 sequence (P32247 1-399): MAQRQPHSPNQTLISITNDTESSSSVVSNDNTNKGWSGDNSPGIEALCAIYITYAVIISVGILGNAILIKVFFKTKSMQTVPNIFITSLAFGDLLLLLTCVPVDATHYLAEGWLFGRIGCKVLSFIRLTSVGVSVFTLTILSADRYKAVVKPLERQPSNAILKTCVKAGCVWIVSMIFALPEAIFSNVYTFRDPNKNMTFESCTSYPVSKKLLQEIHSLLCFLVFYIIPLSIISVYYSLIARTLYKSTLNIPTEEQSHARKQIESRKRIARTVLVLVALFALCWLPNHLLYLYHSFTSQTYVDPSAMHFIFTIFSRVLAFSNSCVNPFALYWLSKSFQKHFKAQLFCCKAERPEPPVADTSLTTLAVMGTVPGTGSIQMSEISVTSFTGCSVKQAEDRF
Nature of the series: FLIPR test: agonistic activity on BRS-3 (Ca2+ fluorescence, Fluo4) in transfected CHO cells. The following applies: for EC50: CHO-K1 cells co-expressing human BRS-3 and human Gα16, 50% activation relative to maximum response of nonapeptide [D-Phe6,β-Ala11,Phe13,Nle14]Bn(6-14) (=100%). The format is cell-based. From the text:
For this, CHO cells (=“Chinese hamster ovary cells”) initially were transfected in known manner with an expression vector for the subtype 3 of the human bombesin receptor, i.e. BRS-3.
The cDNA of the human BRS-3 (nucleotide sequence under GenBank Accession No. L08893) was excised from the plasmid vector pGEM4 (from Promega, USA) using the restriction endonuclease EcoRI and was subcloned into the expression vector pcDNA3.1(−) (from Invitrogen, USA). CHO-K1 cells, which were already stably transfected with the expression vector RD-HGA16, which bears the cDNA sequence of the human Gα16 protein (nucleotide sequence under GenBank Accession No. M63904), were placed in sample plates with 24 sample wells (“24-well plate”) and incubated overnight under sterile conditions in an air-humidified incubator at 37° C. and 5% CO2 in F-12 medium plus Glutamax-I (from GibcoBRL, cat. No. 31765), to which 10%-strength foetal calf serum (inactivated at 56° C. for 1 h, from GibcoBRL), 25 μg/ml gentamicin (from GibcoBRL) and 0.2 mg/ml hygromycin B (from GibcoBRL) had been added. The next day, the cells were transfected with the BRS-3 expression vector by adding, using the “Effectene Transfection Reagent” (from Qiagen), 12 μl of a solution containing 0.3 μg/μl DNA of the expression vector per sample well. One day after transfection, the culture medium was replaced by selection medium. For this, the transfected cells, which each simultaneously express BRS-3 and the human Gα16 protein, were cultivated under sterile conditions at 37° C. and 5% CO2 in F-12 medium plus Glutamax-I (from GibcoBRL, cat. No. 31765), to which 10%-strength foetal calf serum (inactivated at 56° C. for 1 h, from GibcoBRL), 25 μg/ml gentamicin (from GibcoBRL), 0.2 mg/ml hygromycin B (from GibcoBRL) and 0.5 mg/ml geneticin (from GibcoBRL) had been added. To optimize the cell test, the cells with the highest receptor expression rate were selected. For this, the transfected cells were diluted 1:30,000 with the selection medium described above and were placed in sample plates with 96 sample wells (“96-well plate”). The cells were incubated overnight at 37° C. and 5% CO2, then those sample wells which contained only an individual cell were selected. These cells were first started in sample plates with 24 sample wells (“24-well plate”) and then cultivated in Costar plastic flasks (first 25 ml and then 225 ml). The BRS-3 receptor expression of the respective individual cell clone was estimated by determination of the EC50 value of the synthetic nonapeptide [D-Phe^6,β-Ala^11,Phe^13,Nle^14]Bn(6-14) as ligand (for performance of the test see below). The transfected cells were stored at −80° C. in aliquots of 1.8 ml medium each with 10% dimethyl sulfoxide (=DMSO) (cell concentration 1×10^6 cells/ml). For cultivation, a frozen aliquot was heated to 37° C., transferred into a Costar plastic flask (225 ml) and diluted with 50 ml of the selection medium described above. The medium was first changed once after 30 minutes' incubation. On each following first to third day, the medium was removed, the adherent cells (40-95% confluence) were washed with PBS Dulbecco's (from GibcoBRL) and detached from the bottom of the flask by a 2-minute treatment with trypsin-EDTA solution (from GibcoBRL) at 37° C. If the cells were to be cultivated further, they were transferred into a new plastic flask with fresh medium. If experiments were to be carried out with the cells, the cells were transferred into Costar sample plates with 96 sample wells, a clear baseplate and cover (“Costar 96-well assay plates”, from Coming), once the cell concentration had been set to 1.2×10^4 cells/ml.
BRS-3 is coupled via G-proteins to the Ca^2+-signal transduction path of the CHO cell. If an agonist binds to the receptor, the phospholipase C is activated via the G-protein, and then in turn catalyses the synthesis of water-soluble inositol phosphates. […]

With `CC(NCc1ccc(Cl)cc1)C(=O)N[C@H](Cc1c[nH]c2ccccc12)C(=O)NCCc1ccccc1` (mixture of isomers) [Example 3, N1-phenethyl-(2R)-2-{1-[(4-chlorobenzyl)-amino]-ethylcarboxamido}-3-(1H-3-indolyl)-propanamide], the melting point is 107 to 110 °C. In series [1], the EC50 was 4 nM.
For `C[C@H](NC(=O)Cc1ccccc1)C(=O)N[C@H](Cc1c[nH]c2ccccc12)C(=O)NCCc1ccccc1` [Example 2, N1-phenethyl-(2R)-2-[(1S)-1-(benzylcarboxamido)-ethyl]-carboxamido-3-(1H-3-indolyl)-propanamide] (PhAc-Ala-[dW]-NHPhenethyl), in that order: 205 to 207 °C and 2.1 nM.
The corresponding values for `O=C(Cc1cccnc1)NNC(=O)N[C@H](Cc1c[nH]c2ccccc12)C(=O)NCCc1ccccc1` [Example 4, N1-phenethyl-(2R)-2-{N′-[2-(3-pyridyl)-ethanoyl]-hydrazino}-carboxamido-3-(1H-3-indolyl)-propanamide] are 116 to 120 °C and 1.4 nM.
For `O=C(NNCc1ccc(Cl)cc1)N[C@H](Cc1c[nH]c2ccccc12)C(=O)NCCc1ccccc1` [Example 5, N1-phenethyl-(2R)-2-[N′-(4-chlorobenzyl)-hydrazino]-carboxamido-3-(1H-3-indolyl)-propanamide], in that order: 75 to 80 °C and 6 nM.
Compound `O=C(N/N=C/c1ccco1)N[C@H](Cc1c[nH]c2ccccc12)C(=O)NCCc1ccccc1` [Example 6, N1-phenethyl-(2R)-2-[N′-(furan-2-ylmethylene)-hydrazino]-carboxamido-3-(1H-3-indolyl)-propanamide] came in with a melting point of 100 to 101 °C. In addition, the EC50 in series [1] is 1.5 nM.
Compound `O=C(CN1CCC(Cc2ccccc2)CC1)N[C@H](Cc1c[nH]c2ccccc12)C(=O)NCCc1ccccc1` [Example 7, N1-phenethyl-(2R)-2-[(4-benzylpiperidino)-methyl]-carboxamido-3-(1H-3-indolyl)-propanamide] came in with a melting point of 73 to 75 °C. Moreover, the EC50 in series [1] is 30 nM.
Turning to `NC(=O)CCC(NC(=O)Cc1cc2ccccc2[nH]1)C(=O)NC(Cc1c[nH]c2ccccc12)C(=O)NCCc1ccccc1` (centres unmarked) [Example 15], the EC50 in series [1] is 57 nM.
`CC(NC(=O)Cc1cccnc1)C(=O)NC(Cc1c[nH]c2ccccc12)C(=O)NCCc1ccccc1` (centres unmarked) [Example 19] returned an EC50 in series [1] of 32 nM.
`O=C(CNCc1ccccc1)NC(Cc1c[nH]c2ccccc12)C(=O)NCCc1ccccc1` (centres unmarked) [Example 21]: the EC50 in series [1] amounted to 21 nM.
On the same count and under the same terms, the value for `O=C(CNCc1ccc(Cl)cc1)NC(Cc1c[nH]c2ccccc12)C(=O)NCCc1ccccc1` (centres unmarked) [Example 22] was 2.9 nM; that for `O=C(CNCc1cccnc1)NC(Cc1c[nH]c2ccccc12)C(=O)NCCc1ccccc1` (centres unmarked) [Example 23] was 21 nM; that for `O=C(CNCCc1ccccc1)NC(Cc1c[nH]c2ccccc12)C(=O)NCCc1ccccc1` (centres unmarked) [Example 24] was 17 nM.
Still for that read-out and setting: the value for `CC(NCCc1ccccc1)C(=O)NC(Cc1c[nH]c2ccccc12)C(=O)NCCc1ccccc1` (centres unmarked) [Example 26] was 25 nM; that for `O=C(Cc1ccccc1)NNC(=O)NC(Cc1c[nH]c2ccccc12)C(=O)NCCc1ccccc1` (centres unmarked) [Example 27] was 3.1 nM; that for `O=C(Cc1ccc(Cl)cc1)NNC(=O)NC(Cc1c[nH]c2ccccc12)C(=O)NCCc1ccccc1` (centres unmarked) [Example 28] was 0.19 nM.
In series [1], `O=C(Cc1cc2ccccc2[nH]1)NNC(=O)NC(Cc1c[nH]c2ccccc12)C(=O)NCCc1ccccc1` (centres unmarked) [Example 30] showed an EC50 of 2.2 nM.
On to “[D-Phe^6,β-Ala^11,Phe^13,Nle^14]Bn(6-14) [nonapeptide, reference compound]”, for which the “peptide concentration at which the maximum change in fluorescence had already been observed” value in series [1] (reference dilution series on each plate, adopted as 100% value) is about 16 µM.

These data come from patent US7244743B2, “Non-peptidic BRS-3 agonists” (Solvay Pharmaceuticals GmbH, priority 2002, dated 2007).
